Assay results from the kinase profiling compilation of Christmann-Franck et al. (2016).
Values belong to the molecule of their own block, whether it stands above or below them.

Tests used:
Experiment in all cases: radiometric filter-binding kinase assay
PRKACA (human) = PRKACA (human) (UniProt P17612)
[1] = system: PAK2 (human), Q13177 [T402E]
FLT1 (human) = FLT1 (human) (UniProt P17948)
DYRK2 (human) = DYRK2 (human) (UniProt Q92630)
SRPK1 (human) = SRPK1 (human) (UniProt Q96SB4)
MAPK10 (human) = MAPK10 (human) (UniProt P53779)
RIPK2 (human) = RIPK2 (human) (UniProt O43353)
CHEK1 (human) = CHEK1 (human) (UniProt O14757)
MAP2K6 (human) = MAP2K6 (human) (UniProt P52564)
PHKG1 (human) = PHKG1 (human) (UniProt Q16816)
ERBB4 (human) = ERBB4 (human) (UniProt Q15303)
RPS6KA3 KD1 KD2 (human) = RPS6KA3 KD1 KD2 (human) (UniProt P51812)
BTK (human) = BTK (human) (UniProt Q06187)
AURKA (human) = AURKA (human) (UniProt O14965)
PIM2 (human) = PIM2 (human) (UniProt Q9P1W9)
MINK1 (human) = MINK1 (human) (UniProt Q8N4C8)
GCK (human) = GCK (human) (UniProt Q12851)
BRSK1 (human) = BRSK1 (human) (UniProt Q8TDC3)
PIM3 (human) = PIM3 (human) (UniProt Q86V86)
AURKB (human) = AURKB (human) (UniProt Q96GD4)
MST4 (human) = MST4 (human) (UniProt Q9P289)
EPHA2 (human) = EPHA2 (human) (UniProt P29317)
TAOK1 (human) = TAOK1 (human) (UniProt Q7L7X3)
MAPKAPK5 (human) = MAPKAPK5 (human) (UniProt Q8IW41)
MAP2K2 (human) = MAP2K2 (human) (UniProt P36507)
MAPK15 (human) = MAPK15 (human) (UniProt Q8TD08)
CDK2 CCNA2 (human) = CDK2 CCNA2 (human) (UniProt P20248+P24941)
[2] = system: SGK1 (human), O00141 [S422D]
MAPK12 (human) = MAPK12 (human) (UniProt P53778)
INSRR (human) = INSRR (human) (UniProt P14616)
CSNK2A1 (human) = CSNK2A1 (human) (UniProt P68400)
PRKCA (human) = PRKCA (human) (UniProt P17252)
MAPKAPK3 (human) = MAPKAPK3 (human) (UniProt Q16644)
FGFR1 (human) = FGFR1 (human) (UniProt P11362)
MELK (human) = MELK (human) (UniProt Q14680)
EEF2K (human) = EEF2K (human) (UniProt O00418)

FLT1 (human), sequence (P17948 whole entry, looked up): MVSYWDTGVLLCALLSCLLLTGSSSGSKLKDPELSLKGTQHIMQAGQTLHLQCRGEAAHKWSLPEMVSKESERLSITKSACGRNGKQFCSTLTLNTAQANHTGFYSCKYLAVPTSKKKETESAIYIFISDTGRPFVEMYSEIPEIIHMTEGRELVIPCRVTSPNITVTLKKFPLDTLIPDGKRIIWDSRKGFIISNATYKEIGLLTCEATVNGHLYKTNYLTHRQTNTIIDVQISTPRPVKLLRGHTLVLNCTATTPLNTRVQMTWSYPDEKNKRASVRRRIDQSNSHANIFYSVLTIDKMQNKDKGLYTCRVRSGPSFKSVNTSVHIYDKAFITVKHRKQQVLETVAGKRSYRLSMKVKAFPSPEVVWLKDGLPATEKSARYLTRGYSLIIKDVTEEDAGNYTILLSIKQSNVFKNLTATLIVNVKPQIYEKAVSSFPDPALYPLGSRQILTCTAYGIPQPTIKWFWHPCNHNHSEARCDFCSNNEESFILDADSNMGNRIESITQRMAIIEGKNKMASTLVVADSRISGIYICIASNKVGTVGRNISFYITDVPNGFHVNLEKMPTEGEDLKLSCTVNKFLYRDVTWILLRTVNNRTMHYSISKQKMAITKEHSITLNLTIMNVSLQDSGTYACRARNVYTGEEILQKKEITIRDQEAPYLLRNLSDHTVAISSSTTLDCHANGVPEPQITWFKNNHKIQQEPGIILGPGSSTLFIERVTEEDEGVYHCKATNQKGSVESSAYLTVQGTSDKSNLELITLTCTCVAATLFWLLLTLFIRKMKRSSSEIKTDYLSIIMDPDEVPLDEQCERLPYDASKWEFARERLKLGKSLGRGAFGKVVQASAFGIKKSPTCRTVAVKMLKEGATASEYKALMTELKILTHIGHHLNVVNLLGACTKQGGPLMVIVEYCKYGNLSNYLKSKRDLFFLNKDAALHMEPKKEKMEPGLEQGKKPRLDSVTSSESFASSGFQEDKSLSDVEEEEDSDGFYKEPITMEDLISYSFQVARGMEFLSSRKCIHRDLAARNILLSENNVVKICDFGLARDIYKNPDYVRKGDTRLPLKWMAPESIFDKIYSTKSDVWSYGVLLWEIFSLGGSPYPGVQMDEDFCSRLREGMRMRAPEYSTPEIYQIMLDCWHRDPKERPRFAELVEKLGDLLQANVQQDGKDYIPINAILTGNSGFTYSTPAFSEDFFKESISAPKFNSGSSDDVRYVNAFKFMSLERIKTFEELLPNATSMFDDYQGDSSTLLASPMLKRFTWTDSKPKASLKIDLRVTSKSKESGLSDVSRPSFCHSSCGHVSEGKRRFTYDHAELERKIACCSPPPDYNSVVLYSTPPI
GCK (human), sequence (Q12851 whole entry, looked up): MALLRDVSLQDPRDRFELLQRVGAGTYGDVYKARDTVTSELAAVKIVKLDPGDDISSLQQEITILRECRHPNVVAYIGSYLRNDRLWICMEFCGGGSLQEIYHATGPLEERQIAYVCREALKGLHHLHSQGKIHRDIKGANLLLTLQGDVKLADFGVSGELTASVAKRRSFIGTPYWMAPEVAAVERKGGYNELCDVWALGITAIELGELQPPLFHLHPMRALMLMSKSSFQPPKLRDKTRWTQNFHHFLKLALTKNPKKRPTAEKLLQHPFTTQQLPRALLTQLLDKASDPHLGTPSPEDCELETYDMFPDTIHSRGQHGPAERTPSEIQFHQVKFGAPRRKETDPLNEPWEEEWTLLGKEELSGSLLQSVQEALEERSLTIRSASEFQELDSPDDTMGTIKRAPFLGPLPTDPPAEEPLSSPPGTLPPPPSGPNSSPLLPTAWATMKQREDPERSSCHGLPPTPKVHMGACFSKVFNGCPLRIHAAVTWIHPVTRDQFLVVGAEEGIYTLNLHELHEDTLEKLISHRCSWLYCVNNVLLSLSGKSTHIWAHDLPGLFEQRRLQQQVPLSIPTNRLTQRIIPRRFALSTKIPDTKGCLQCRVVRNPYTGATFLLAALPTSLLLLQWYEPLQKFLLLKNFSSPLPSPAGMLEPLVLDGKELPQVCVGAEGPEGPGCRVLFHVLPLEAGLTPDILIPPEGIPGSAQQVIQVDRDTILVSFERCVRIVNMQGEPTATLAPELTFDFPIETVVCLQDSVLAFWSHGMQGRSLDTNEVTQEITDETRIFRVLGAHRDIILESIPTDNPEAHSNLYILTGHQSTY
DYRK2 (human), sequence (Q92630 whole entry, looked up): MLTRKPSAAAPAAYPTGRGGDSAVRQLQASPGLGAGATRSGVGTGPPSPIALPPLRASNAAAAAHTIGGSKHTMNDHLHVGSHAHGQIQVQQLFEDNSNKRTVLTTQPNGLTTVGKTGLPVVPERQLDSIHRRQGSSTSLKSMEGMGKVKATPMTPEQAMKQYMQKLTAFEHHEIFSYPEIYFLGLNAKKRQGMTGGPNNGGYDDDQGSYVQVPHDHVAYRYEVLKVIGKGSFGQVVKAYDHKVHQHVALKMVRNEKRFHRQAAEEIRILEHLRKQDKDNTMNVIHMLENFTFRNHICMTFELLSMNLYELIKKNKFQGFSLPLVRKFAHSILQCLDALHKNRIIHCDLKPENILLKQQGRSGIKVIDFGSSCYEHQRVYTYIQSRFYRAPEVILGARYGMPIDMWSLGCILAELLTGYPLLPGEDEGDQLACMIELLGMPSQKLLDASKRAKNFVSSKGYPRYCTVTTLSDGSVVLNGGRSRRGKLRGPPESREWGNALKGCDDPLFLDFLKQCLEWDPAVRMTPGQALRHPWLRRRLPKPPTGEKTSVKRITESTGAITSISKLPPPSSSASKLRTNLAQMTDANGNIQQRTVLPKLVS
AURKA (human), sequence (O14965 whole entry, looked up): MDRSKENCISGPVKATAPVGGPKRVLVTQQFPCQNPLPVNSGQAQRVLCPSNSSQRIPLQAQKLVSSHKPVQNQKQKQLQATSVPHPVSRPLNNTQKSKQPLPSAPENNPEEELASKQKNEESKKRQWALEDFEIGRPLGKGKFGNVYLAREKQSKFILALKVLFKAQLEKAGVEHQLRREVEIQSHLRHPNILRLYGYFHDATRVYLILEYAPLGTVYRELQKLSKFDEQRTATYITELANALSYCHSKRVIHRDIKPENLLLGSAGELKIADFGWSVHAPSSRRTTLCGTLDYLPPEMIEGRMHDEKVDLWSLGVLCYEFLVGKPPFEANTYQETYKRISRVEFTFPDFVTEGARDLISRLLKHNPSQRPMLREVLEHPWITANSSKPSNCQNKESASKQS
MINK1 (human), sequence (Q8N4C8 whole entry, looked up): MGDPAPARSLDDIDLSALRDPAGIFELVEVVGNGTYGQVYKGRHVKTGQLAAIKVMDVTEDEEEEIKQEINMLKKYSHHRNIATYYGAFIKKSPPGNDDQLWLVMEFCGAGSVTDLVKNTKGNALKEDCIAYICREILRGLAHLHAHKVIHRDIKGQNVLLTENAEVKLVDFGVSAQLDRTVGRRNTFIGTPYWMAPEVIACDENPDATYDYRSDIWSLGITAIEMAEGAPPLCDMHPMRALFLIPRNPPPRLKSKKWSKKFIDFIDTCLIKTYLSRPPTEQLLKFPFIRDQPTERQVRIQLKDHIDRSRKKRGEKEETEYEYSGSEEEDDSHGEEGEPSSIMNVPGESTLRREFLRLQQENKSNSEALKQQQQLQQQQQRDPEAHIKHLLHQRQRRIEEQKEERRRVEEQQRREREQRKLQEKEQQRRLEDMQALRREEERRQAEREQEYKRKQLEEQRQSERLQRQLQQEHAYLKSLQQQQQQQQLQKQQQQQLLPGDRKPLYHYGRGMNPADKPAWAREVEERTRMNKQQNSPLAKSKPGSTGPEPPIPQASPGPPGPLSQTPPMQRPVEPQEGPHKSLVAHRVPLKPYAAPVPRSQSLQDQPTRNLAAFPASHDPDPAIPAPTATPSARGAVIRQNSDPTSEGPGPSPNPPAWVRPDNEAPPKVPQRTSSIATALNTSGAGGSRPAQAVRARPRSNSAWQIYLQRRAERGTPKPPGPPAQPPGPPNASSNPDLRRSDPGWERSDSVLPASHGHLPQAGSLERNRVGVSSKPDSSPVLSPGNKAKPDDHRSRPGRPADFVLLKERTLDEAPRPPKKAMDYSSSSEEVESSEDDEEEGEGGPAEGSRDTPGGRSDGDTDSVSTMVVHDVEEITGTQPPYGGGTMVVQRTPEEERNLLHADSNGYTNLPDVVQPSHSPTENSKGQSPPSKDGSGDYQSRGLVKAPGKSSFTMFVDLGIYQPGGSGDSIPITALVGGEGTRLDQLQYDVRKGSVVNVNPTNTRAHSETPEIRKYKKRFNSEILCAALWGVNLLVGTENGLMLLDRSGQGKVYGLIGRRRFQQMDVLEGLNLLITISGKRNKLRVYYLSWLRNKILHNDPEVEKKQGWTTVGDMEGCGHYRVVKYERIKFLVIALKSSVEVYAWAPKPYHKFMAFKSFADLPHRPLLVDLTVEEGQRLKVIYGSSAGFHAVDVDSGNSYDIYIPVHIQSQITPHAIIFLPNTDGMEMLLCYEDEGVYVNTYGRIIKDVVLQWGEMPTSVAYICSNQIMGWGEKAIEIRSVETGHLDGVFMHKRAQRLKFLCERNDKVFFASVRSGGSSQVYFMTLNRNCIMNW
RIPK2 (human), sequence (O43353 whole entry, looked up): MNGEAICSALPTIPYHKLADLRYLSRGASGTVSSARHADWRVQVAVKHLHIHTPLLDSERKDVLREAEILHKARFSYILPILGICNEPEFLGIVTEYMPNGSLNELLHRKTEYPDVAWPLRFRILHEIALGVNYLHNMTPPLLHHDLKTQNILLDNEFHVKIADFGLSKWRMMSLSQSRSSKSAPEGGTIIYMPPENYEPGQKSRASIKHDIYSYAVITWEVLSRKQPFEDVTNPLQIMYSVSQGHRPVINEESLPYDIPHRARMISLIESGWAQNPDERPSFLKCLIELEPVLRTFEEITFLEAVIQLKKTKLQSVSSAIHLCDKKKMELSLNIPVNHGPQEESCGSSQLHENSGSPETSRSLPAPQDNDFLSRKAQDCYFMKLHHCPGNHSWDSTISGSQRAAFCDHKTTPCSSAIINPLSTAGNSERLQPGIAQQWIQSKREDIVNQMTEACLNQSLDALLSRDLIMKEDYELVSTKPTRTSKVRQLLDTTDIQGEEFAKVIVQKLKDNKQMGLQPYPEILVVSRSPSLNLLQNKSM

residual activity (PRKACA (human); compound 1.0 µM): 109% | residual activity (PRKACA (human); compound 10.0 µM): 79% | residual activity ([1]; compound 1.0 µM): 96% | residual activity ([1]; compound 10.0 µM): 98% | residual activity (FLT1 (human); compound 1.0 µM): 27% | residual activity (FLT1 (human); compound 10.0 µM): 7% | residual activity (DYRK2 (human); compound 1.0 µM): 45% | residual activity (DYRK2 (human); compound 10.0 µM): 1% | residual activity (SRPK1 (human); compound 1.0 µM): 55% | residual activity (SRPK1 (human); compound 10.0 µM): 3% | residual activity (MAPK10 (human); compound 1.0 µM): 107% | residual activity (MAPK10 (human); compound 10.0 µM): 89% | residual activity (RIPK2 (human); compound 1.0 µM): 83% | residual activity (RIPK2 (human); compound 10.0 µM): 7% | residual activity (CHEK1 (human); compound 1.0 µM): 92% | residual activity (CHEK1 (human); compound 10.0 µM): 32% | residual activity (MAP2K6 (human); compound 1.0 µM): 102% | residual activity (PHKG1 (human); compound 1.0 µM): 98% | residual activity (PHKG1 (human); compound 10.0 µM): 2% | residual activity (ERBB4 (human); compound 1.0 µM): 109% | residual activity (ERBB4 (human); compound 10.0 µM): 44% | residual activity (RPS6KA3 KD1 KD2 (human); compound 1.0 µM): 22% | residual activity (RPS6KA3 KD1 KD2 (human); compound 10.0 µM): 12% | residual activity (BTK (human); compound 1.0 µM): 61% | residual activity (BTK (human); compound 10.0 µM): 32% | residual activity (AURKA (human); compound 1.0 µM): 95% | residual activity (AURKA (human); compound 10.0 µM): 28% | residual activity (PIM2 (human); compound 1.0 µM): 74% | residual activity (PIM2 (human); compound 10.0 µM): 11% | residual activity (MINK1 (human); compound 1.0 µM): 56% | residual activity (MINK1 (human); compound 10.0 µM): 10% | residual activity (GCK (human); compound 1.0 µM): 93% | residual activity (GCK (human); compound 10.0 µM): 23% | residual activity (BRSK1 (human); compound 1.0 µM): 82% | residual activity (BRSK1 (human); compound 10.0 µM): 7% | residual activity (PIM3 (human); compound 1.0 µM): 34% | residual activity (PIM3 (human); compound 10.0 µM): 0% | residual activity (AURKB (human); compound 1.0 µM): 62% | residual activity (AURKB (human); compound 10.0 µM): 8% | residual activity (MST4 (human); compound 1.0 µM): 87% | residual activity (MST4 (human); compound 10.0 µM): 58% | residual activity (EPHA2 (human); compound 1.0 µM): 94% | residual activity (EPHA2 (human); compound 10.0 µM): 73% | residual activity (TAOK1 (human); compound 1.0 µM): 94% | residual activity (MAPKAPK5 (human); compound 1.0 µM): 87% | residual activity (MAPKAPK5 (human); compound 10.0 µM): 1% | residual activity (MAP2K2 (human); compound 1.0 µM): 94% | residual activity (CDK2 CCNA2 (human); compound 1.0 µM): 89% | residual activity (CDK2 CCNA2 (human); compound 10.0 µM): 32% | residual activity ([2]; compound 1.0 µM): 87% | residual activity ([2]; compound 10.0 µM): 24% | residual activity (MAPK12 (human); compound 1.0 µM): 107% | residual activity (MAPK12 (human); compound 10.0 µM): 88% | residual activity (INSRR (human); compound 1.0 µM): 76% | residual activity (INSRR (human); compound 10.0 µM): 21% | residual activity (CSNK2A1 (human); compound 1.0 µM): 46% | residual activity (CSNK2A1 (human); compound 10.0 µM): 7% | residual activity (PRKCA (human); compound 1.0 µM): 99% | residual activity (PRKCA (human); compound 10.0 µM): 80% | residual activity (MAPKAPK3 (human); compound 1.0 µM): 92% | residual activity (MAPKAPK3 (human); compound 10.0 µM): 14% | residual activity (FGFR1 (human); compound 1.0 µM): 27% | residual activity (FGFR1 (human); compound 10.0 µM): 14% | residual activity (MELK (human); compound 1.0 µM): 53% | residual activity (MELK (human); compound 10.0 µM): 9% | residual activity (EEF2K (human); compound 1.0 µM): 110% | residual activity (EEF2K (human); compound 10.0 µM): 109%
Structure (SMILES): O=c1c(O)c(-c2ccc(O)c(O)c2)oc2cc(O)c(O)c(O)c12
residual activity (MAPK15 (human); compound 1.0 µM): 89% | residual activity (MAPK15 (human); compound 10.0 µM): 65%

residual activity (PRKACA (human); compound 1.0 µM): 106% | residual activity (PRKACA (human); compound 10.0 µM): 101% | residual activity (PRKACA (human); compound 50.0 µM): 91% | residual activity ([1]; compound 10.0 µM): 83% | residual activity (FLT1 (human); compound 10.0 µM): 51% | residual activity (DYRK2 (human); compound 1.0 µM): 40% | residual activity (DYRK2 (human); compound 10.0 µM): 15% | residual activity (DYRK2 (human); compound 50.0 µM): 1% | residual activity (SRPK1 (human); compound 1.0 µM): 111% | residual activity (SRPK1 (human); compound 10.0 µM): 87% | residual activity (SRPK1 (human); compound 50.0 µM): 93% | residual activity (MAPK10 (human); compound 1.0 µM): 80% | residual activity (MAPK10 (human); compound 10.0 µM): 87% | residual activity (MAPK10 (human); compound 50.0 µM): 114% | residual activity (RIPK2 (human); compound 10.0 µM): 51% | residual activity (CHEK1 (human); compound 1.0 µM): 95% | residual activity (CHEK1 (human); compound 10.0 µM): 79% | residual activity (CHEK1 (human); compound 50.0 µM): 29% | residual activity (MAP2K6 (human); compound 10.0 µM): 87% | residual activity (PHKG1 (human); compound 1.0 µM): 58% | residual activity (PHKG1 (human); compound 10.0 µM): 21% | residual activity (PHKG1 (human); compound 50.0 µM): 23% | residual activity (ERBB4 (human); compound 10.0 µM): 59% | residual activity (RPS6KA3 KD1 KD2 (human); compound 1.0 µM): 77% | residual activity (RPS6KA3 KD1 KD2 (human); compound 10.0 µM): 72% | residual activity (RPS6KA3 KD1 KD2 (human); compound 50.0 µM): 18% | residual activity (BTK (human); compound 10.0 µM): 75% | residual activity (AURKA (human); compound 10.0 µM): 100% | residual activity (PIM2 (human); compound 1.0 µM): 78% | residual activity (PIM2 (human); compound 10.0 µM): 37% | residual activity (PIM2 (human); compound 50.0 µM): 27% | residual activity (MINK1 (human); compound 10.0 µM): 66% | residual activity (GCK (human); compound 10.0 µM): 73% | residual activity (BRSK1 (human); compound 10.0 µM): 56% | residual activity (PIM3 (human); compound 1.0 µM): 48% | residual activity (PIM3 (human); compound 10.0 µM): 44% | residual activity (PIM3 (human); compound 50.0 µM): 2% | residual activity (AURKB (human); compound 1.0 µM): 97% | residual activity (AURKB (human); compound 10.0 µM): 62% | residual activity (AURKB (human); compound 50.0 µM): 22% | residual activity (MST4 (human); compound 10.0 µM): 68% | residual activity (EPHA2 (human); compound 10.0 µM): 81% | residual activity (TAOK1 (human); compound 10.0 µM): 32% | residual activity (MAPKAPK5 (human); compound 1.0 µM): 105% | residual activity (MAPKAPK5 (human); compound 10.0 µM): 85% | residual activity (MAPKAPK5 (human); compound 50.0 µM): 56% | residual activity (MAP2K2 (human); compound 10.0 µM): 91% | residual activity (CDK2 CCNA2 (human); compound 1.0 µM): 103% | residual activity (CDK2 CCNA2 (human); compound 10.0 µM): 59% | residual activity (CDK2 CCNA2 (human); compound 50.0 µM): 34% | residual activity ([2]; compound 1.0 µM): 79% | residual activity ([2]; compound 10.0 µM): 94% | residual activity ([2]; compound 50.0 µM): 23% | residual activity (MAPK12 (human); compound 1.0 µM): 106% | residual activity (MAPK12 (human); compound 10.0 µM): 78% | residual activity (MAPK12 (human); compound 50.0 µM): 65% | residual activity (INSRR (human); compound 10.0 µM): 62% | residual activity (CSNK2A1 (human); compound 1.0 µM): 101% | residual activity (CSNK2A1 (human); compound 10.0 µM): 82% | residual activity (CSNK2A1 (human); compound 50.0 µM): 49% | residual activity (PRKCA (human); compound 1.0 µM): 96% | residual activity (PRKCA (human); compound 10.0 µM): 82% | residual activity (PRKCA (human); compound 50.0 µM): 58% | residual activity (MAPKAPK3 (human); compound 1.0 µM): 121% | residual activity (MAPKAPK3 (human); compound 10.0 µM): 64% | residual activity (MAPKAPK3 (human); compound 50.0 µM): 97% | residual activity (FGFR1 (human); compound 10.0 µM): 85% | residual activity (MELK (human); compound 1.0 µM): 49% | residual activity (MELK (human); compound 10.0 µM): 50% | residual activity (MELK (human); compound 50.0 µM): 8% | residual activity (EEF2K (human); compound 1.0 µM): 95% | residual activity (EEF2K (human); compound 10.0 µM): 69% | residual activity (EEF2K (human); compound 50.0 µM): 87%
Structure (SMILES): Oc1ccc(/C=C/c2cc(O)cc(O)c2)cc1
residual activity (MAPK15 (human); compound 1.0 µM): 36% | residual activity (MAPK15 (human); compound 10.0 µM): 10% | residual activity (MAPK15 (human); compound 50.0 µM): 12%
